Patent publication US6426355B1, “Heterocyclic carboxamide-containing thiourea inhibitors of herpes viruses containing phenylenediamine group” (American Home Products, priority 1998, dated 2002)
In brackets after ≈: the same amount, converted by molar mass.

What was measured:
HSV-1 = assay: HSV Antiviral (ELISA) assay; format: cell-based; settings: HSV-1 in Vero cells
Method in brief: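 Vero cells in DMEM/2% FBS pretreated with compound 30 min before HSV-1 infection (MOI 0.006), then ~24 h at 37 °C. Viral gD detected by ELISA with β-galactosidase secondary and 4-methylumbelliferyl-galactoside (ex 365/em 450 nm); IC50 from fluorescence versus untreated infected cells.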

[1] = system: HCMV recombinant mutant virus (RV145); assay: HCMV microtiter plate assay (beta-glucuronidase reporter); format: cell-based, Human Cytomegalovirus; settings: HCMV in human foreskin fibroblasts
Method in brief: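 Human foreskin fibroblasts were infected with RV145 in the presence of inhibitor. β-glucuronidase under a viral promoter served as the replication marker. At 96 h post-infection, lysates in pH 7.0 phosphate with Triton X-100/sarkosyl were assayed colorimetrically or fluorometrically, and IC50 was estimated from varying inhibitor amounts.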

VZV strain Ellen = assay: VZV Antiviral (ELISA) assay; format: cell-based; settings: VZV strain Ellen in HFF cells; for % inhibition 10 ug/ml VZV: at 10 ug/ml
Method in brief: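 Cell-based ELISA: infected/uninfected HFF mix (VZV Ellen, MOI <0.1) exposed to compound in DMEM/2% FBS for 3 days at 37° C. Anti-gpII monoclonal plus β-galactosidase-linked secondary, detected as 4-methylumbelliferone fluorescence; IC50 derived by comparing fluorescence with versus without compound.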

Row | SMILES | IC50 (ug/ml) HSV (HSV-1) [µg/mL] | IC50 (ug/ml) HCMV [1] [µg/mL] | IC50 (ug/ml) VZV (VZV strain Ellen) | % inhibition 10 ug/ml VZV (VZV strain Ellen) [%]
1 | O=C(Nc1ccc(NC(=S)Nc2cc(C(F)(F)F)cc(C(F)(F)F)c2)cc1)c1ccco1 [Example 516] | >10 | 0.04 (≈ 0.0845 µM) | >10 µg/mL | 7
2 | Nc1c(Br)cc(NC(=S)Nc2ccc(NC(=O)c3csnn3)cc2)cc1Br [Example 521] | 10 (≈ 18.9 µM) | 0.04 (≈ 0.0757 µM) | 3 µg/mL (≈ 5.68 µM) | 97
3 | CN(C)c1cc(Cl)cc(NC(=S)Nc2ccc(NC(=O)c3csnn3)cc2)c1 [Example 522] | >10 | 0.025 (≈ 0.0577 µM) | >10 µg/mL | 32
4 | CN(C)c1cc(Cl)cc(NC(=S)Nc2ccc(NC(=O)c3ccco3)cc2)c1 [Example 524] | 4 (≈ 9.64 µM) | 0.055 (≈ 0.133 µM) | 2 µg/mL (≈ 4.82 µM) | 95
5 | O=C(Nc1ccc(NC(=S)Nc2ccc3[nH]nnc3c2)cc1)c1ccco1 [Example 526] | >10 | 3 (≈ 7.93 µM) | 2.5 µg/mL (≈ 6.61 µM) | 22
6 | O=C(Nc1ccc(NC(=S)NNc2cccc(Cl)c2)cc1)c1ccco1 [Example 528] | 3.2 (≈ 8.27 µM) | 0.25 (≈ 0.646 µM) | 5 µg/mL (≈ 12.9 µM) | 107
7 | Nc1c(Cl)cc(C(F)(F)F)cc1NC(=S)Nc1ccc(NC(=O)c2ccco2)cc1 [Example 530] | 5 (≈ 11 µM) | 0.15 (≈ 0.33 µM) | 6 µg/mL (≈ 13.2 µM) | 96
8 | O=C(Nc1ccc(NC(=S)Nc2cc(Br)cc(C(F)(F)F)c2)cc1)c1csnn1 [Example 532] | >10 | 0.009 (≈ 0.0179 µM) | 6 µg/mL (≈ 11.9 µM) | –
9 | Nc1c(Cl)cc(C(F)(F)F)cc1NC(=S)Nc1ccc(NC(=O)c2csnn2)cc1 [Example 534] | 7 (≈ 14.8 µM) | 0.05 (≈ 0.106 µM) | >10 µg/mL | –
10 | O=C(Nc1ccc(NC(=S)Nc2cc(N3CCCCC3)cc(C(F)(F)F)c2)cc1)c1csnn1 [Example 535] | >10 | 0.016 (≈ 0.0316 µM) | >10 µg/mL | –
11 | O=C(Nc1ccc(NC(=S)NCc2ccc(Cl)c(Cl)c2)cc1)c1csnn1 [Example 537] | 9 (≈ 20.5 µM) | 0.003 (≈ 0.00684 µM) | 10 µg/mL (≈ 22.8 µM) | –
12 | O=C(Nc1ccc(NC(=S)NCc2ccccc2)cc1)c1csnn1 [Example 539] | >10 | 0.036 (≈ 0.0974 µM) | >10 µg/mL | –
13 | O=C(Nc1ccc(NC(=S)NCc2ccc3c(c2)OCO3)cc1)c1csnn1 [Example 541] | 7 (≈ 16.9 µM) | 0.017 (≈ 0.0411 µM) | >10 µg/mL | –
14 | O=C(Nc1ccc(NC(=S)NCc2cc(C(F)(F)F)cc(C(F)(F)F)c2)cc1)c1csnn1 [Example 542] | >10 | 0.0011 (≈ 0.00218 µM) | >10 µg/mL | –
15 | O=C(Nc1ccc(NC(=S)NCc2ccccc2)cc1)c1ccco1 [Example 544] | >10 | 0.02 (≈ 0.0569 µM) | >10 µg/mL | –
16 | O=C(Nc1ccc(NC(=S)NCc2ccc(Cl)c(Cl)c2)cc1)c1ccco1 [Example 545] | 3 (≈ 7.14 µM) | 0.012 (≈ 0.0285 µM) | 7 µg/mL (≈ 16.7 µM) | –
17 | O=C(Nc1ccc(NC(=S)NCc2cc(C(F)(F)F)cc(C(F)(F)F)c2)cc1)c1ccco1 [Example 547] | >10 | 0.006 (≈ 0.0123 µM) | 10 µg/mL (≈ 20.5 µM) | –
18 | O=C(Nc1ccc(NC(=S)Nc2ccc(Br)c(C(F)(F)F)c2)cc1)c1csnn1 [Example 548] | >10 | 0.008 (≈ 0.0159 µM) | >lo | –
19 | O=C(Nc1ccc(NC(=S)Nc2ccc(OC(F)(F)F)c(Br)c2)cc1)c1csnn1 [Example 550] | >10 | 0.013 (≈ 0.0251 µM) | >10 µg/mL | –
20 | O=C(Nc1ccc(NC(=S)Nc2ccc(SC(F)(F)F)c(Cl)c2)cc1)c1ccco1 [Example 551] | >10 | 0.043 (≈ 0.0911 µM) | >10 µg/mL | –
21 | O=C(Nc1ccc(NC(=S)NCCc2cccc(F)c2)cc1)c1csnn1 [Example 554] | >10 | 0.01 (≈ 0.0249 µM) | 1.5 µg/mL (≈ 3.74 µM) | –
22 | O=C(Nc1ccc(NC(=S)NCCc2ccc(F)cc2)cc1)c1csnn1 [Example 555] | >10 | 0.008 (≈ 0.0199 µM) | 4 µg/mL (≈ 9.96 µM) | –

Row | SMILES | IC50 (ug/ml) HSV (HSV-1) [µg/mL] | IC50 (ug/ml) HCMV [1] [µg/mL] | IC50 (ug/ml) VZV (VZV strain Ellen) | % inhibition 10 ug/ml VZV (VZV strain Ellen) [%]
23 | CCC(C)Cc1cc(NC(=S)Nc2ccc(NC(=O)c3csnn3)cc2)cc(C(F)(F)F)c1 (stereo not shown) [Example 556] | >10 | 0.006 (≈ 0.0122 µM) | >7.5 µg/mL | –
24 | CC(C)Cc1cc(NC(=S)Nc2ccc(NC(=O)c3csnn3)cc2)cc(C(F)(F)F)c1 [Example 557] | >10 | 0.006 (≈ 0.0125 µM) | >10 µg/mL | –
25 | CN1CCN(c2cc(NC(=S)Nc3ccc(NC(=O)c4csnn4)cc3)cc(C(F)(F)F)c2)CC1 [Example 558] | 7 (≈ 13.4 µM) | 0.05 (≈ 0.0959 µM) | >10 µg/mL | –
26 | O=C(Nc1ccc(NC(=S)Nc2cc(N3CCOCC3)cc(C(F)(F)F)c2)cc1)c1csnn1 [Example 559] | >10 | 0.012 (≈ 0.0236 µM) | >10 µg/mL | –
27 | O=C(Nc1ccc(NC(=S)Nc2cc(N3CCCC3)cc(C(F)(F)F)c2)cc1)c1csnn1 [Example 560] | >10 | 0.008 (≈ 0.0162 µM) | >10 µg/mL | –
28 | O=C(Nc1ccc(NC(=S)NCCc2ccc(F)cc2)cc1)c1ccco1 [Example 561] | >10 | 0.05 (≈ 0.13 µM) | 8 µg/mL (≈ 20.9 µM) | –
29 | O=C(Nc1ccc(NC(=S)NCCc2cccc(Cl)c2)cc1)c1csnn1 [Example 562] | >10 | 0.004 (≈ 0.00957 µM) | 8 µg/mL (≈ 19.1 µM) | –
30 | O=C(Nc1ccc(NC(=S)NCCc2cccc(Cl)c2)cc1)c1ccco1 [Example 564] | >10 | 0.027 (≈ 0.0675 µM) | 5 µg/mL (≈ 12.5 µM) | –
31 | CC(NC(=S)Nc1ccc(NC(=O)c2csnn2)cc1)c1ccc(F)cc1 (stereo not shown) [Example 565] | >10 | 0.01 (≈ 0.0249 µM) | 0.22 µg/mL (≈ 0.548 µM) | –
32 | CC(NC(=S)Nc1ccc(NC(=O)c2csnn2)cc1)c1ccccc1 (stereo not shown) [Example 588] | >10 | 0.03 (≈ 0.0782 µM) | 0.36 µg/mL (≈ 0.939 µM) | –
33 | CC(NC(=S)Nc1ccc(NC(=O)c2ccco2)cc1)c1ccccc1 (stereo not shown) [Example 590] | >10 | 0.12 (≈ 0.328 µM) | 1 µg/mL (≈ 2.74 µM) | –
34 | CC(NC(=S)Nc1ccc(NC(=O)c2ccco2)cc1)c1ccc(F)cc1 (stereo not shown) [Example 592] | >10 | 0.049 (≈ 0.128 µM) | 2 µg/mL (≈ 5.22 µM) | –
35 | CC(C)CN(C)c1cc(NC(=S)Nc2ccc(NC(=O)c3csnn3)cc2)cc(C(F)(F)F)c1 [Example 594] | >10 | 0.011 (≈ 0.0216 µM) | >10 µg/mL | –
36 | O=C(Nc1ccc(NC(=S)Nc2cc(N3CCC(O)C3)cc(C(F)(F)F)c2)cc1)c1csnn1 (stereo not shown) [Example 595] | >10 | 0.022 (≈ 0.0433 µM) | 3 µg/mL (≈ 5.9 µM) | –
37 | CCCCN(C)c1cc(NC(=S)Nc2ccc(NC(=O)c3csnn3)cc2)cc(C(F)(F)F)c1 [Example 597] | >10 | 0.008 (≈ 0.0157 µM) | >10 µg/mL | –
38 | O=C(Nc1ccc(NC(=S)NCCc2cc(C(F)(F)F)cc(C(F)(F)F)c2)cc1)c1csnn1 [Example 599] | >10 | 0.005 (≈ 0.00962 µM) | >10 µg/mL | –
39 | O=C(Nc1ccc(NC(=S)Nc2ccc(F)c(C(F)(F)F)c2)cc1)c1csnn1 [Example 600] | >10 | 0.012 (≈ 0.0272 µM) | >10 µg/mL | –
40 | O=C(Nc1ccc(NC(=S)NCc2ccc(N3CCCCC3)c(C(F)(F)F)c2)cc1)c1csnn1 [Example 601] | >10 | 0.0011 (≈ 0.00211 µM) | >10 µg/mL | –
41 | CN(C)c1ccc(CNC(=S)Nc2ccc(NC(=O)c3csnn3)cc2)cc1C(F)(F)F [Example 602] | >10 | 0.0015 (≈ 0.00312 µM) | >10 µg/mL | –
42 | Nc1ccc(CCNC(=S)Nc2ccc(NC(=O)c3ccco3)cc2)cc1 [Example 603] | >10 | >0.5 | >10 µg/mL | –
43 | O=C(Nc1ccc(NC(=S)NCCc2ccc(Br)cc2)cc1)c1ccco1 [Example 604] | >10 | 0.025 (≈ 0.0563 µM) | 10 µg/mL (≈ 22.5 µM) | –
